These results are taken from patent US11014911B2, “CDK2 inhibitors” (Pfizer Inc., priority 2019, dated 2021).

Structures are written as SMILES.

One experiment has as its target GSK3β (H350L) (Homo sapiens (Human), UniProt P49841). As to conditions: read-out: GSK3β Ki.
In experiment [1] the target is CDK2/Cyclin E1 full length (Homo sapiens (Human), UniProt P24941). Put plainly: CDK2/Cyclin E1 full length mobility shift assay. It counts as biochemical.

Sequence of GSK3β (H350L) (P49841 whole entry, stated change not applied): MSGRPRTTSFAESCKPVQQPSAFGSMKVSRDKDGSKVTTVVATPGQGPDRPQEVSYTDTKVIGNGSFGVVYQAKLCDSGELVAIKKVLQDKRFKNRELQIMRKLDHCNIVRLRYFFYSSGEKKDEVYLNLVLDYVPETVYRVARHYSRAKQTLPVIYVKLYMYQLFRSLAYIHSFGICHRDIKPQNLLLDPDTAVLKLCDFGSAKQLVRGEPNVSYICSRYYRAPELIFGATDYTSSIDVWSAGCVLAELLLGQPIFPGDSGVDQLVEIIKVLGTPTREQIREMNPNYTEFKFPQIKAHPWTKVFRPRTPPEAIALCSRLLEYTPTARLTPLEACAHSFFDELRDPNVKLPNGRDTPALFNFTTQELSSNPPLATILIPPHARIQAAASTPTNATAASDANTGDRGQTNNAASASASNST
Experimental for GSK3β (H350L): The assay was initiated with the addition of ATP, following 15 minutes pre-incubation of enzyme and inhibitor at room temperature in the reaction mixture. The reaction was stopped after 30 minutes at room temperature by the addition of 50 μL of 80 mM EDTA.

`Cc1ncc(CC(=O)Nc2cc([C@H]3CC[C@@H](OC(=O)NC4(C)CCCC4)C3)[nH]n2)s1` [Example 116]: the values for the Ki (on GSK3β (H350L); in experiment [1]) were 8.86 nM and 0.13 nM, respectively.

Regarding `CC1(NC(=O)O[C@@H]2CC[C@H](c3cc(NC(=O)Cc4ccno4)n[nH]3)C2)CCCC1` [Example 117], the inhibition constant Ki (usually the equilibrium dissociation constant of an inhibitor or competing ligand from its target) on GSK3β (H350L) was found to be 15.9 nM; in experiment [1] it was 0.14 nM.

As for `Cc1cnc(CC(=O)Nc2cc([C@H]3CC[C@@H](OC(=O)NC4(C)CCC4)C3)[nH]n2)o1` [Example 118], the inhibition constant Ki was 17.8 nM at GSK3β (H350L) and 0.22 nM in experiment [1].

Turning to `Cn1cc(CC(=O)Nc2cc([C@H]3CC[C@@H](OC(=O)NC4(C)CCC4)C3)[nH]n2)cn1` [Example 119], the inhibition constant Ki on GSK3β (H350L) came to 19.3 nM; in experiment [1] it was 0.13 nM.

Regarding `CC1(NC(=O)O[C@@H]2CC[C@H](c3cc(NC(=O)Cc4ccno4)n[nH]3)C2)CC1` [Example 128], the inhibition constant (Ki) at GSK3β (H350L) came out at 55.4 nM; in experiment [1] it was 0.15 nM.

With `CC1(NC(=O)O[C@@H]2CC[C@H](c3cc(NC(=O)Cc4cc(Cl)ccn4)n[nH]3)C2)CC1` [Example 129], the Ki on GSK3β (H350L) worked out at 31.6 nM; in experiment [1], 0.2 nM.

Take `Cc1cc(CC(=O)Nc2cc([C@H]3CC[C@@H](OC(=O)N4CCCCC4(C)C)C3)[nH]n2)on1` [Example 133]: the values for the inhibition constant Ki (on GSK3β (H350L); in experiment [1]) were 7 nM and 0.11 nM, respectively.

As to `Cc1cc(CC(=O)Nc2cc([C@H]3CC[C@@H](OC(=O)N4CCCC4(C)C)C3)[nH]n2)on1` [Example 134], the inhibition constant (Ki) at GSK3β (H350L) was 7.12 nM; in experiment [1] it was 0.12 nM.

With `CC1(C)CCCN1C(=O)O[C@@H]1CC[C@H](c2cc(NC(=O)Cc3ccon3)n[nH]2)C1` [Example 135], the Ki on GSK3β (H350L) was found to be 11.7 nM; in experiment [1], 0.19 nM.

As to `Cn1ccc(CC(=O)Nc2cc([C@H]3CC[C@@H](OC(=O)N4CCCC4(C)C)C3)[nH]n2)n1` [Example 136], the figures for the inhibition constant (Ki) (at GSK3β (H350L); in experiment [1]) were 8.22 nM and 0.22 nM, respectively.

Consider `CC1(C)CCCN1C(=O)O[C@@H]1CC[C@H](c2cc(NC(=O)Cc3cnc4ncnn4c3)n[nH]2)C1` [Example 137], for which the inhibition constant (Ki) at GSK3β (H350L) came to 6.07 nM; in experiment [1], 0.09 nM.

As to `CC1(C)CCCN1C(=O)O[C@@H]1CC[C@H](c2cc(NC(=O)Cc3cnco3)n[nH]2)C1` [Example 138], the Ki on GSK3β (H350L) came to 7.06 nM; in experiment [1] it was 0.23 nM.

Regarding `Cc1ncc(CC(=O)Nc2cc([C@H]3CC[C@@H](OC(=O)N4CCC[C@@H]4C)C3)[nH]n2)s1` [Example 139], the results for the Ki (on GSK3β (H350L); in experiment [1]) were 8.48 nM and 0.21 nM, respectively.

For `C[C@H]1CCCN1C(=O)O[C@@H]1CC[C@H](c2cc(NC(=O)Cc3cnc4ncnn4c3)n[nH]2)C1` [Example 141], the inhibition constant Ki at GSK3β (H350L) is 5.75 nM; in experiment [1] it was 0.08 nM.

In the case of `CC1(C)CCN1C(=O)O[C@@H]1CC[C@H](c2cc(NC(=O)Cc3ccccc3S(C)(=O)=O)n[nH]2)C1` [Example 142], the inhibition constant (Ki) at GSK3β (H350L) came out at 17.7 nM; in experiment [1], 0.22 nM.

For the compound `CC1(C)CCN1C(=O)O[C@H]1CC[C@@H](c2cc(NC(=O)Cc3ccccc3S(C)(=O)=O)n[nH]2)C1` [Example 143], the Ki on GSK3β (H350L) was determined as 15.8 nM; in experiment [1] it was 0.25 nM.

With `COc1ccc(CC(=O)Nc2cc([C@H]3CC[C@@H](OC(=O)N4CCC4(C)C)C3)[nH]n2)cn1` [Example 144], the values for the inhibitory constant (Ki) (at GSK3β (H350L); in experiment [1]) were 1.26 nM and 0.1 nM, respectively.

For the compound `COc1cc(CC(=O)Nc2cc([C@H]3CC[C@@H](OC(=O)N4CCC4(C)C)C3)[nH]n2)ccn1` [Example 146], the Ki amounted to 3.47 nM at GSK3β (H350L) and 0.07 nM in experiment [1].

As for `Cc1cnc(CC(=O)Nc2cc([C@H]3CC[C@@H](OC(=O)N4CCC4(C)C)C3)[nH]n2)o1` [Example 147], the values for the Ki (at GSK3β (H350L); in experiment [1]) were 6.87 nM and 0.25 nM, respectively.

As for `Cn1cc(CC(=O)Nc2cc([C@H]3CC[C@@H](OC(=O)N4CCC4(C)C)C3)[nH]n2)cn1` [Example 148], the inhibitory constant (Ki) on GSK3β (H350L) was 5.57 nM; in experiment [1] it was 0.24 nM.

With `COc1cc(CC(=O)Nc2cc([C@H]3CC[C@@H](OC(=O)N4[C@@H](C)C[C@@H]4C)C3)[nH]n2)ccn1` [Example 149], the values for the Ki (at GSK3β (H350L); in experiment [1]) were 5.58 nM and 0.06 nM, respectively.

On to `Cc1cc(CC(=O)Nc2cc([C@H]3CC[C@@H](OC(=O)N4[C@@H](C)C[C@@H]4C)C3)[nH]n2)on1` [Example 150], for which the inhibitory constant (Ki) at GSK3β (H350L) was found to be 8.35 nM; in experiment [1] it was 0.25 nM.

Turning to `CCCNC(=O)O[C@H]1CC[C@@H](c2cc(NC(=O)c3ccnn3C)n[nH]2)C1` [Example 163, (1S,3R)-3-(3-{[(1-methyl-1H-pyrazol-5-yl)carbonyl]amino}-1H-pyrazol-5-yl)cyclopentyl propylcarbamate], the Ki on GSK3β (H350L) amounted to 16.6 nM; in experiment [1] it was 0.32 nM.

Turning to `CCCNC(=O)O[C@@H]1CC[C@H](c2cc(NC(=O)c3ccnn3C)n[nH]2)C1` [Example 164, (1R,3S)-3-(3-{[(1-methyl-1H-pyrazol-5-yl)carbonyl]amino}-1H-pyrazol-5-yl)cyclopentyl propylcarbamate], the inhibition constant Ki on GSK3β (H350L) is 44.7 nM; in experiment [1], 0.72 nM.

Turning to `CCCNC(=O)O[C@H]1CC[C@@H](c2cc(NC(=O)Cc3cnco3)n[nH]2)C1` [Example 166, (1S,3R)-3-{3-[(1,3-oxazol-5-ylacetyl)amino]-1H-pyrazol-5-yl}cyclopentyl propylcarbamate], the Ki turned out to be 24.3 nM at GSK3β (H350L) and 0.4 nM in experiment [1].

As to `CCCNC(=O)O[C@@H]1CC[C@H](c2cc(NC(=O)Cc3cnco3)n[nH]2)C1` [Example 167, (1R,3S)-3-{3-[(1,3-oxazol-5-ylacetyl)amino]-1H-pyrazol-5-yl}cyclopentyl propylcarbamate], the figures for the inhibitory constant (Ki) (at GSK3β (H350L); in experiment [1]) were 33.9 nM and 1.4 nM, respectively.

As to `CCCNC(=O)O[C@H]1CC[C@@H](c2cc(NC(=O)Cc3ccno3)n[nH]2)C1` [Example 168, (1S,3R)-3-{3-[(1,2-oxazol-5-ylacetyl)amino]-1H-pyrazol-5-yl}cyclopentyl propylcarbamate], the values for the Ki (on GSK3β (H350L); in experiment [1]) were 25.8 nM and 0.36 nM, respectively.

Turning to `CCCNC(=O)O[C@@H]1CC[C@H](c2cc(NC(=O)Cc3ccno3)n[nH]2)C1` [Example 169, (1R,3S)-3-{3-[(1,2-oxazol-5-ylacetyl)amino]-1H-pyrazol-5-yl}cyclopentyl propylcarbamate], the results for the Ki (at GSK3β (H350L); in experiment [1]) were 29.6 nM and 1.63 nM, respectively.

Consider `CCCNC(=O)O[C@H]1CC[C@@H](c2cc(NC(=O)c3ccnc(C)c3)n[nH]2)C1` [Example 170, (1S,3R)-3-(3-{[(2-methylpyridin-4-yl)carbonyl]amino}-1H-pyrazol-5-yl)cyclopentyl propylcarbamate], for which the Ki was more than 191 nM at GSK3β (H350L) and 1.37 nM in experiment [1].

For the compound `CCCNC(=O)O[C@H]1CC[C@@H](c2cc(NC(=O)Cc3ccccn3)n[nH]2)C1` [Example 171, (1S,3R)-3-{3-[(pyridin-2-ylacetyl)amino]-1H-pyrazol-5-yl}cyclopentyl propylcarbamate], the Ki was determined as 18.2 nM at GSK3β (H350L) and 1.73 nM in experiment [1].

Take `CCCNC(=O)O[C@H]1CC[C@@H](c2cc(NC(=O)c3cc(C)nn3C)n[nH]2)C1` [Example 172, (1S,3R)-3-(3-{[(1,3-dimethyl-1H-pyrazol-5-yl)carbonyl]amino}-1H-pyrazol-5-yl)cyclopentyl propylcarbamate]: the Ki was found to be 102 nM at GSK3β (H350L) and 1.2 nM in experiment [1].

For `CCCNC(=O)O[C@@H]1CC[C@H](c2cc(NC(=O)c3cc(C)nn3C)n[nH]2)C1` [Example 173, (1R,3S)-3-(3-{[(1,3-dimethyl-1H-pyrazol-5-yl)carbonyl]amino}-1H-pyrazol-5-yl)cyclopentyl propylcarbamate], the inhibition constant (Ki) at GSK3β (H350L) was more than 191 nM; in experiment [1], 2.29 nM.

In the case of `CCCNC(=O)O[C@H]1CC[C@@H](c2cc(NC(=O)c3cn(C)nc3C)n[nH]2)C1` [Example 174, (1S,3R)-3-(3-{[(1,3-dimethyl-1H-pyrazol-4-yl)carbonyl]amino}-1H-pyrazol-5-yl)cyclopentyl propylcarbamate], the Ki is more than 95.3 nM at GSK3β (H350L) and 3 nM in experiment [1].

On to `CCCNC(=O)O[C@H]1CC[C@@H](c2cc(NC(=O)Cc3cnc(C)o3)n[nH]2)C1` [Example 175, (1S,3R)-3-(3-{[(2-methyl-1,3-oxazol-5-yl)acetyl]amino}-1H-pyrazol-5-yl)cyclopentyl propylcarbamate], for which the Ki at GSK3β (H350L) amounted to 39.7 nM; in experiment [1], 0.82 nM.

Take `CCCNC(=O)O[C@@H]1CC[C@H](c2cc(NC(=O)Cc3cnc(C)o3)n[nH]2)C1` [Example 176, (1R,3S)-3-(3-{[(2-methyl-1,3-oxazol-5-yl)acetyl]amino}-1H-pyrazol-5-yl)cyclopentyl propylcarbamate]: the figures for the Ki (on GSK3β (H350L); in experiment [1]) were 46.1 nM and 2.5 nM, respectively.

Take `CCCNC(=O)O[C@H]1CC[C@@H](c2cc(NC(=O)Cc3cc(C)no3)n[nH]2)C1` [Example 177, (1S,3R)-3-(3-{[(3-methyl-1,2-oxazol-5-yl)acetyl]amino}-1H-pyrazol-5-yl)cyclopentyl propylcarbamate]: the figures for the inhibition constant (Ki) (at GSK3β (H350L); in experiment [1]) were 19 nM and 0.43 nM, respectively.

For `CCCNC(=O)O[C@@H]1CC[C@H](c2cc(NC(=O)Cc3cc(C)no3)n[nH]2)C1` [Example 178, (1R,3S)-3-(3-{[(3-methyl-1,2-oxazol-5-yl)acetyl]amino}-1H-pyrazol-5-yl)cyclopentyl propylcarbamate], the inhibitory constant (Ki) is 21.4 nM on GSK3β (H350L) and 1.1 nM in experiment [1].

Take `CCCNC(=O)O[C@@H]1CC[C@H](c2cc(NC(=O)Cc3cncs3)n[nH]2)C1` [Example 179, (1R,3S)-3-{3-[(1,3-thiazol-5-ylacetyl)amino]-1H-pyrazol-5-yl}cyclopentyl propylcarbamate]: the results for the Ki (on GSK3β (H350L); in experiment [1]) were 13.5 nM and 0.54 nM, respectively.

In the case of `CCCNC(=O)O[C@H]1CC[C@@H](c2cc(NC(=O)c3ccc(C)nc3C)n[nH]2)C1` [Example 180, (1S,3R)-3-(3-{[(2,6-dimethylpyridin-3-yl)carbonyl]amino}-1H-pyrazol-5-yl)cyclopentyl propylcarbamate], the inhibitory constant (Ki) was more than 95.3 nM on GSK3β (H350L) and 0.81 nM in experiment [1].

Take `CCCNC(=O)O[C@@H]1CC[C@H](c2cc(NC(=O)c3ccc(C)nc3C)n[nH]2)C1` [Example 181, (1R,3S)-3-(3-{[(2,6-dimethylpyridin-3-yl)carbonyl]amino}-1H-pyrazol-5-yl)cyclopentyl propylcarbamate]: the results for the inhibition constant Ki (on GSK3β (H350L); in experiment [1]) were more than 191 nM and 3.91 nM, respectively.
